Read-outs that look alike come from different tables or passages of the source.
Columns and labels:
Assay type in all cases: cell-based
HRV16 = HRV16 HeLa EC50 (cytopathic effect in H1-HeLa cells)
Summary of the method: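 H1-HeLa cells seeded one day before, given 3-fold serial compound dilutions in triplicate just prior to infection with pre-titrated virus. Incubated 96 h at 33 °C/5% CO2; protection from cytopathic effect read as viability by CellTiter-Glo luminescence, normalised to infected untreated (0%) and uninfected (100%) controls.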

HCV Rep 1B = HCV Rep 1B EC50 (replicon luciferase)
Procedure: (§1) Compounds were serially diluted in ten steps of 1:3 dilutions in 384-well plates. All serial dilutions were performed in four replicates per compound within the same 384-well plate. […] To each well of a black polystyrene 384-well plate (Greiner Bio-one, Monroe, NC), 90 μL of cell culture medium (without Geneticin) containing 2000 suspended HCV replicon cells was added with a Biotek μFlow workstation. For compound transfer into cell culture plates, 0.4 μL of compound solution from the compound serial dilution plate was transferred to the cell culture plate on a Biomek FX workstation. The DMSO concentration in the final assay wells was 0.44%. The plates were incubated for 3 days at 37° C. with 5% CO2 and 85% humidity. The HCV replicon assay was a multiplex assay, able to assess both cytotoxicity and antireplicon activity from the same well. The CC50 assay was performed first. The media in the 384-well cell culture plate was aspirated, and the wells were washed four times with 100 μL of PBS each, using a Biotek ELX405 plate washer. A volume of 50 μL of a solution containing 400 nM calcein AM (Anaspec, Fremont, CA) in 1×PBS was added to each well of the plate with a Biotek μFlow workstation. The plate was incubated for 30 min at room temperature before the fluorescence signal (excitation 490 nm, emission 520 nm) was measured with a Perkin-Elmer Envision plate reader. The EC50 assay was performed in the same wells as the CC50 assay. The calcein-PBS solution in the 384-well cell culture plate was aspirated with a Biotek ELX405 plate washer. A volume of 20 μL of Dual-Glo luciferase buffer (Promega, Madison, WI) was added to each well of the plate with a Biotek μFlow Workstation. The plate was incubated for 10 min at room temperature. A volume of 20 μL of a solution containing a 1:100 mixture of Dual-Glo Stop & Glo substrate (Promega, Madison, WI) and Dual-Glo Stop & Glo buffer (Promega, Madison, WI) was added to each well of the plate with a Biotek μFlow Workstation. The plate was then incubated at room temperature for 10 min before the luminescence signal was measured with a Perkin-Elmer Envision Plate Reader.

HCV Rep 2A = HCV Rep 2A EC50 (replicon luciferase)
Procedure: as §1

[1] = test system: Dengue 2, New Guinea strain (NGC); test: DENV moDC EC50 (qPCR in human monocyte-derived dendritic cells); settings: Table 3, human moDCs, 48 hours
Procedure: Human monocyte-derived dendritic cells (moDCs) were derived from CD14+ monocytes (AllCells) cultured in Human Mo-DC Differentiation medium containing GM-CSF and IL-4 (Miltenyi Biotec). On day 7, moDCs were harvested by mechanical disruption, washed and suspended in serum-free RPMI. moDCs were infected with Vero-derived Dengue 2, New Guinea strain (NGC) at a MOI=0.1 for two hours in serum-free RPMI with gentle agitation at 37° C. Cells were washed and resuspended in 10% serum-containing RPMI (Gibco, supplemented with sodium pyruvate, NEAA, Penicillin-Streptomycin). […] were plated in triplicate in 96-well plates with compounds dispensed at graded doses (Hewlett-Packard D300 Digital Dispenser). All wells were normalized to 0.25% DMSO. At 48 hours, cells were washed with 1×PBS and all supernatants removed. Total RNA was extracted using RNEasy 96 plates (Qiagen) and used to generate first-strand cDNA using XLT cDNA 5× Supermix (QuantaBio). cDNA was used as a template in a Taqman qPCR duplex reaction specific to DENV2 viral and GAPDH gene expression. EC50 values were determined using Prism Graphpad software, with normalization to a positive control and no compound negative control wells.

[2] = test system: Dengue serotype 2 New Guinea C (NGC) strain; test: DENV-2 Huh-7 EC50 (qPCR in Huh7 cells)
Procedure: Huh7 (Human hepatocarcinoma 7) cells were maintained in 10% FCS-containing DMEM complete media. On the day of the assay, cells were trypsinized (0.1% Trypsin-EDTA), washed and infected for 2 hours in serum-free DMEM with Dengue serotype 2 New Guinea C (NGC) strain at MOI=0.1 with gentle agitation at 37° C. After 2 hours, cells were washed with serum-free media and suspended in 10% FCS-containing DMEM (Gibco, supplemented with sodium pyruvate, NEAA, Penicillin-Streptomycin). 10^5 cells were plated in triplicate in 96-well plates with compounds dispensed at graded doses (Hewlett-Packard D300 Digital Dispenser). All wells were normalized to 0.25% DMSO. At 48 hours, cells were washed with 1×PBS and all supernatants removed. Total RNA was extracted using RNEasy 96 plates (Qiagen) and used to generate first-strand cDNA using XLT cDNA 5× Supermix (QuantaBio). cDNA was used as a template in a Taqman qPCR duplex reaction specific to DENV2 viral and GAPDH gene expression. EC50 values were determined using Prism Graphpad software, with normalization to a positive control and no compound negative control wells.

[3] = Table 3, H1-HeLa cells, 96 h, read-out: HRV16 HeLa EC50
[4] = Table 4, replicon cells, 3 days, read-out: HCV Rep 1B EC50
[5] = Table 4, replicon cells, 3 days, read-out: HCV Rep 2A EC50
[6] = 96 h, Table 3, H1-HeLa cells, 96 h, read-out: HRV16 HeLa EC50
[7] = HeLa, read-out: HRV16 HeLa EC50, Table 5 comparative activity, 2',3'-OH vs -OC(O)iPr
[8] = Dengue virus, DENV2, Huh-7, Table 3, Huh7 cells, 48 hours, read-out: DENV-2 Huh7 EC50
[9] = Dengue virus, Huh-7, read-out: DENV Huh7 EC50
[10] = Hepatitis C virus, 72 h, Table 4, replicon cells, 3 days, read-out: HCV Rep 1B EC50
[11] = Hepatitis C virus, 72 h, Table 4, replicon cells, 3 days, read-out: HCV Rep 2A EC50
[12] = Table 3, Huh7 cells, 48 hours, read-out: DENV-2 Huh7 EC50

In the case of `CCC(=O)O[C@H]1[C@H](c2ccc3c(N)ncnn23)O[C@](C#N)(CO[P@@](=O)(N[C@@H](C)C(=O)OCC2CC2)Oc2ccccc2)[C@H]1OC(=O)CC` [Example 99], the EC50 (HRV16; [3]) is reported as 116 nM, the EC50 (HCV Rep 1B; [4]) is reported as 313 nM and the EC50 (HCV Rep 2A; [5]) is reported as 599 nM.
For `COC(=O)[C@H](C)N[P@](=O)(OC[C@@]1(C#N)O[C@@H](c2ccc3c(N)ncnn23)[C@H](OC(=O)C(C)C)[C@@H]1OC(=O)C(C)C)Oc1ccccc1` (single isomer, unassigned) [Example 140], the EC50 (HRV16; [6]) was 83 nM, the EC50 (HRV16; [7]) was 83 nM and the EC50 ([1]; Dengue virus, Dendritic cell) was 90 nM. The EC50 [2, 8] was 1220 nM, the EC50 [2, 9] was 1210 nM and the EC50 (HCV Rep 1B; [10]) was 369 nM. For the same molecule, the EC50 (HCV Rep 1B; Hepatitis C virus, read-out: HCV Rep1B EC50) was 368 nM, the EC50 (HCV Rep 2A; [11]) was 542 nM and the EC50 (HCV Rep 2A; Hepatitis C virus, read-out: HCV Rep2A EC50) was 542 nM.
In the case of `CC(C)C(=O)O[C@H]1[C@H](c2ccc3c(N)ncnn23)O[C@](C#N)(COP(=O)(N[C@@H](C)C(=O)OC2COC2)Oc2ccccc2)[C@H]1OC(=O)C(C)C` (single isomer, unassigned) [Example 186], the EC50 (HRV16; [3]) is reported as 44 nM, the EC50 [2, 12] is reported as 1730 nM and the EC50 (HCV Rep 1B; [4]) is reported as 306 nM. For the same molecule, the EC50 (HCV Rep 2A; [5]) was 836 nM.
With `COC(=O)[C@H](C)N[P@](=O)(OC[C@@]1(C#N)O[C@@H](c2ccc3c(=N)n(COP(=O)(O)O)cnn23)[C@H](OC(=O)C(C)C)[C@@H]1OC(=O)C(C)C)Oc1ccccc1` [Example 259, (2R,3S,4S,5S)-2-cyano-5-(4-imino-3-((phosphonooxy)methyl)-3,4-dihydropyrrolo[2,1-f][1,2,4]triazin-7-yl)-2-((((S)-(((S)-1-methoxy-1-oxopropan-2-yl)amino)(phenoxy)phosphoryl)oxy)methyl)tetrahydrofuran-3,4-diyl bis(2-methylpropanoate)] the EC50 [2, 8] was 1860 nM, the EC50 (HCV Rep 1B; [10]) was 1120 nM and the EC50 (HCV Rep 2A; [11]) was 2080 nM.
`CCC(CC)COC(=O)[C@H](C)N[P@](=O)(OC[C@@]1(C#N)O[C@@H](c2ccc3c(N)ncnn23)C(OC(=O)C(C)C)[C@@H]1OC(=O)C(C)C)Oc1ccccc1` (stereo in doubt) [Example 86, (2R,3S,4R,5S)-5-(4-aminopyrrolo[2,1-f][1,2,4]triazin-7-yl)-2-cyano-2-((((S)-(((S)-1-(2-ethylbutoxy)-1-oxopropan-2-yl)amino)(phenoxy)phosphoryl)oxy)methyl) tetrahydrofuran-3,4-diyl bis(2-methylpropanoate)] was tested, and the EC50 (HRV16; [6]) was 192 nM, the EC50 ([1]; Dengue virus, Dendritic cell) was 239 nM and the EC50 [2, 8] was 1410 nM. The EC50 (HCV Rep 1B; [10]) was 929 nM and the EC50 (HCV Rep 2A; [11]) was 1480 nM.
With `CC(C)C(=O)O[C@H]1[C@H](c2ccc3c(N)ncnn23)O[C@](C#N)(COP(=O)(N[C@@H](C)C(=O)OCC2CCOCC2)Oc2ccccc2)[C@H]1OC(=O)C(C)C` (single isomer, unassigned) [Example 183] the EC50 (HRV16; [3]) was 88 nM, the EC50 [1] was 142 nM and the EC50 [2, 12] was 1110 nM.
With `CC(C)C(=O)O[C@H]1[C@H](c2ccc3c(N)ncnn23)O[C@](C#N)(COP(=O)(N[C@@H](C)C(=O)OCC2COC2)Oc2ccccc2)[C@H]1OC(=O)C(C)C` (single isomer, unassigned) [Example 201] the EC50 (HRV16; [3]) was 177 nM, the EC50 [1] was 57 nM and the EC50 [2, 12] was 317 nM.
With `CCOC(=O)[C@H](C)N[P@](=O)(OC[C@@]1(C#N)O[C@@H](c2ccc3c(N)ncnn23)[C@H](OC(=O)C(C)C)[C@@H]1OC(=O)C(C)C)Oc1ccccc1` (single isomer, unassigned) [Example 144] the EC50 (HRV16; [6]) was 93 nM, the EC50 (HRV16; [7]) was 92 nM and the EC50 ([1]; Dengue virus, Dendritic cell) was 31 nM. The EC50 [2, 8] was 1180 nM, the EC50 [2, 9] was 1280 nM and the EC50 (HCV Rep 1B; [10]) was 442 nM. The EC50 (HCV Rep 2A; [11]) was 1270 nM.
In the case of `CCC(=O)O[C@H]1[C@H](c2ccc3c(N)ncnn23)O[C@](C#N)(CO[P@@](=O)(N[C@@H](C)C(=O)OC)Oc2ccccc2)[C@H]1OC(=O)CC` (single isomer, unassigned) [Example 143], the EC50 (HRV16; [6]) is reported as 221 nM, the EC50 ([1]; Dengue virus, Dendritic cell) is reported as 164 nM and the EC50 [2, 8] is reported as 3130 nM.
For `CCC(=O)O[C@H]1[C@H](c2ccc3c(N)ncnn23)O[C@](C#N)(CO[P@@](=O)(N[C@@H](C)C(=O)OC2CCCCC2)Oc2ccccc2)[C@H]1OC(=O)CC` [Example 82, (2R,3S,4S,5S)-5-(4-aminopyrrolo[2,1-f][1,2,4]triazin-7-yl)-2-cyano-2-((((S)-(((S)-1-(cyclohexyloxy)-1-oxopropan-2-yl)amino)(phenoxy)phosphoryl)oxy)methyl) tetrahydrofuran-3,4-diyl dipropionate], the EC50 (HRV16; [6]) was 201 nM, the EC50 ([1]; Dengue virus, Dendritic cell) was 786 nM and the EC50 [2, 8] was 3980 nM. It also gave an EC50 (HCV Rep 1B; [10]) of 359 nM and an EC50 (HCV Rep 2A; [11]) of 813 nM.
Work on `CCC(=O)O[C@H]1[C@H](c2ccc3c(N)ncnn23)O[C@](C#N)(CO[P@@](=O)(N[C@@H](C)C(=O)OC(C)C)Oc2ccccc2)[C@H]1OC(=O)CC` [Example 90, (2R,3S,4S,5S)-5-(4-Aminopyrrolo[2,1-f][1,2,4]triazin-7-yl)-2-cyano-2-((((S)-(((S)-1-isopropoxy-1-oxopropan-2-yl)amino)(phenoxy)phosphoryl)oxy)methyl) tetrahydrofuran-3,4-diyl dipropionate] yielded an EC50 (HRV16; [6]) of 259 nM, an EC50 ([1]; Dengue virus, Dendritic cell) of 677 nM and an EC50 [2, 8] of 2160 nM. It also gave an EC50 (HCV Rep 1B; [10]) of 579 nM and an EC50 (HCV Rep 2A; [11]) of 1140 nM.
In the case of `CC(C)C(=O)O[C@H]1[C@H](c2ccc3c(N)ncnn23)O[C@](C#N)(CO[P@@](=O)(N[C@@H](C)C(=O)OC2CCCCC2)Oc2ccccc2)[C@H]1OC(=O)C(C)C` [Example 77, (2R,3S,4S,5S)-5-(4-aminopyrrolo[2,1-f][1,2,4]triazin-7-yl)-2-cyano-2-((((S)-(((S)-1-(cyclohexyloxy)-1-oxopropan-2-yl)amino)(phenoxy)phosphoryl)oxy)methyl) tetrahydrofuran-3,4-diyl bis(2-methylpropanoate)], the EC50 (HRV16; [6]) is reported as 152 nM, the EC50 ([1]; Dengue virus, Dendritic cell) is reported as 185 nM and the EC50 [2, 8] is reported as 1490 nM. The EC50 (HCV Rep 1B; [10]) was 608 nM and the EC50 (HCV Rep 2A; [11]) was 936 nM.

Reference: patent US12264173B2 (GILEAD SCIENCES, INC., priority 2020, dated 2025)
